Values quoted from earlier work, collected in patent US20190032079A1, “SYSTEMIC SYNTHESIS AND REGULATION OF L-DOPA” (MYODOPA LIMITED, priority 2015, published 2019).
Where two headings read alike, the source gives them in different places. One block for each compound: values may come before it.

What was measured:
TH [1] = system: TH
TH [2] = molecular target: TH (Rattus norvegicus, UniProt P04177)
THΔ32 = THΔ32 (Rattus norvegicus, UniProt P04177)
THΔ68 = THΔ68 (Rattus norvegicus, UniProt P04177)
[3] = intra-intestinal infusion; improved control of PD and dyskinesia
[4] = preincubation with stoichiometric amounts of dopamine

TH (Rattus norvegicus, UniProt P04177), sequence (P04177 whole entry): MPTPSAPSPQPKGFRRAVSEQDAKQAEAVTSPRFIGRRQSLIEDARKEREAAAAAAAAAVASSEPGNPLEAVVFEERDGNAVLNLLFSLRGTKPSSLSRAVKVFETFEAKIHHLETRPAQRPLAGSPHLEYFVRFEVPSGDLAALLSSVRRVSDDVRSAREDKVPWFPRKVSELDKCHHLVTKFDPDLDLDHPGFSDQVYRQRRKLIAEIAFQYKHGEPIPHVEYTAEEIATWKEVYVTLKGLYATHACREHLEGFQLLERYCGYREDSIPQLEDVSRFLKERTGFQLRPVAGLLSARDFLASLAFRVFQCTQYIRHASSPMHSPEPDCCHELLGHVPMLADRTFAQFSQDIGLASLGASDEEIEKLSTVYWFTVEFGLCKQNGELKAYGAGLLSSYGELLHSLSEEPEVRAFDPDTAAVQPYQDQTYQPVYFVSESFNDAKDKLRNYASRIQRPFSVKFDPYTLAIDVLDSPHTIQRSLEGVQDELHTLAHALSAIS
THΔ32, sequence (P04177 33-498 limits assumed, stated change not applied): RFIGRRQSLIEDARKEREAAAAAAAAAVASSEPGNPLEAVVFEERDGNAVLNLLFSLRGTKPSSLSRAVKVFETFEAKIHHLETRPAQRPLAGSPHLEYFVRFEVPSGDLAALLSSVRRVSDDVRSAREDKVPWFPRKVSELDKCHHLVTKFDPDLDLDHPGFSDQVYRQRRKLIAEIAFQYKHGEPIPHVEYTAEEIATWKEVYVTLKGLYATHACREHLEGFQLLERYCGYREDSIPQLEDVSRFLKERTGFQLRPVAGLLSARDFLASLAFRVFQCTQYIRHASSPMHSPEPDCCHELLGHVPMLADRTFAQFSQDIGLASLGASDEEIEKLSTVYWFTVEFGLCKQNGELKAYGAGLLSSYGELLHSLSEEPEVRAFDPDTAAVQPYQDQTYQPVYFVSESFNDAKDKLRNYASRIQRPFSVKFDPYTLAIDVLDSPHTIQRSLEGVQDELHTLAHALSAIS
THΔ68, sequence (P04177 69-498 limits assumed, stated change not applied): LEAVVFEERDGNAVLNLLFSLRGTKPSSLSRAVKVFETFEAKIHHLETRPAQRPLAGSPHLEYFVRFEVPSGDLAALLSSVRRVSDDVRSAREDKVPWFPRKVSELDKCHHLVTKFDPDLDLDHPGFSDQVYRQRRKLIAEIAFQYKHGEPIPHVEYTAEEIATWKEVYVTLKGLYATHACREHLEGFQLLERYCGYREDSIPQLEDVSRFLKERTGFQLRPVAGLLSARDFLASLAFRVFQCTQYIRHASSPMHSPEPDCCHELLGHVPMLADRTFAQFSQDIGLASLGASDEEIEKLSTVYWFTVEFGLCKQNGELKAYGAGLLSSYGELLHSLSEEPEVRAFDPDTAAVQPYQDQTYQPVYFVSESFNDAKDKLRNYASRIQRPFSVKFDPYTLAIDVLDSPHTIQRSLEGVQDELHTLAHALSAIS

Kd (TH [1]; read-out: K(D), second low affinity dopamine-binding site, present in non-phosphorylated and Ser40-phosphorylated forms): 90 nM
binds more tightly than DOPA (TH [2]; relative to DOPA): 1000 fold
decrease of DA affinity for TH when the enzyme is phosphorylated (TH [2]; ser40 phosphorylation): 300 fold
dopamine release from the enzyme (THΔ32): not released
inhibition by dopamine (THΔ32; [4]): 90%
dopamine release from the enzyme (THΔ68): rapidly released
inhibition by dopamine (THΔ68; [4]): not inhibited
Structure (SMILES): NCCc1ccc(O)c(O)c1 [dopamine]
increase of TH activity on dissociation of dopamine from the low-affinity site (TH [1]; Ser40-phosphorylated enzyme): 9 fold
increase of TH activity on dissociation of dopamine from the low-affinity site (TH [1]; non-phosphorylated enzyme): 12 fold

therapeutic range for plasma L-DOPA: 0.2 to 1.5 mg/L
Structure (SMILES): N[C@@H](Cc1ccc(O)c(O)c1)C(=O)O [L-DOPA, L-3,4-dihydroxyphenylalanine]

Structure (SMILES): O=C(O)Cc1ccc(O)c(O)c1 [dihydroxyphenylacetate]
binds less tightly than DOPA (TH [2]; relative to DOPA): 100 fold

Structure (SMILES): COC(=O)[C@@H](N)Cc1ccc(O)c(O)c1 [levodopa methyl ester]
plasma levels of Levodopa [3]: 3000 to 4000 ng/mL
